The values below come from patent US20120184562A1, “1,6- AND 1,8-NAPHTHYRIDINES” (priority 2011, published 2012).

Usually inhibition stands for the share of the control response that was lost under treatment. As usually defined, the IC50 is the concentration needed to halve the response being measured.

Experiment [1] deals with T1, Human DYRK1A (Homo sapiens, UniProt Q13627).
T1 construct: purchased Invitrogen PV3997
Description: DYRK1A Kinase TR-FRET (IMAP-Tb) Assay. The class given is biochemical. The following applies: for inhibition at 10 µM: % inhibition at 10 μM test compound concentration, where IC50 not determined, read-out: % inhibition DYRK1A (printed in the Enzyme IC50 DYRK1A column); for IC50: TR-FRET (IMAP-Tb), ATP 70 μM, 37° C., 60 minutes, average of multiple runs, read-out: Enzyme IC50 (μM) DYRK1A. The source says: DYRK1A Kinase TR-FRET (IMAP-Tb) Assay
The kinase TR-FRET (IMAP-Tb) assay uses a fluorescence labeled substrate peptide in the kinase reaction. Upon phosphorylation by the kinase, phosphopeptide is produced, which will be detected by the binding solution provided in IMAP TR-FRET binding kit. After the completion of the kinase reaction, the reaction will be stopped by adding the binding solution containing terbium tracer. This tracer is immobilized on the surface of the IMAP beads, which also contain metal ions on the beads that bind to the phospho-groups of the products. Thus the phosphorylated product of the reaction can enter into close proximity to the tracer, producing resonance energy transfer. Due to the long lifetime of terbium (Tb) fluorescence the detection can be run in time resolved mode, which virtually eliminates fluorescence interference from assay components or compounds.
The TR-FRET signal measurement from this assay, given as an IC50 measurement, is a measure of a test compound's ability to interfere with the phosphorylation of the peptide substrate, that is it inhibits the phosphorylation of the substrate peptide by DYRK1A, and is thus a measure of the test compound's ability to inhibit the activity of DYRK1A.
• 1. Human DYRK1A: from Invitrogen. Part #PV3997 • 2. Substrate Peptide: […] • 3. IMAP TR-FRET IPP Explorer Kit: from Molecular Devices. Part #R8157 • 4. Kinase Assay Buffer (KAB): 10 mM HEPES pH 7.0, 50 mM NaCl, 5 mM MgCl2, 1 mM DTT, 1 mM NaVO4, 200 μg/mL BSA (0.02%) • 5. Assay Plate: Remp polypropylene clear 384-well microplate. […] Detection Plate: Costa black 384-well microplate. […] Transfer 1.5 μL of 20× compound solution to each well of an assay plate. • 2. Add to each well 22.5 μL of KAB Buffer. • 3. Add to each well 3 μL of the solution of DYRK1A and ATP. […] Add to each well 3 μL of the substrate peptide. The assay concentration is 1.0 μM • 5. Incubate the assay plates at 37° C. for 60 minutes. • 6. Add 18 μL of Detection Solution (1:800 diluted Progress bead stock, 1:400 diluted Tb stock, 80% Buffer A, and 20% Buffer B) into each well of detection plates. • 7. Transfer 6 μL of assay solution from the assay plate to the detection plate. • 8. Shake detection plates for 30 minutes. • 9. Read plates in Envision with wavelength set at excitation 340 nm for Tb, emission 490 nm, and […].

Experiment [2] concerns the target T2, Human DYRK1B (Homo sapiens, UniProt Q9Y463).
T2 construct: purchased Invitrogen PR8350B (former PV4649)
The experiment can be described thus: DYRK1B Kinase TR-FRET (IMAP-Tb) Assay. The class given is biochemical. The conditions noted are these: for inhibition at 10 µM: % inhibition at 10 μM test compound concentration, where IC50 not determined; for IC50: TR-FRET (IMAP-Tb), ATP 70 μM, 37° C., 60 minutes, average of multiple runs, read-out: Enzyme IC50 (μM) DYRK1B. The source says:
DYRK1B Kinase TR-FRET (IMAP-Tb) Assay The kinase TR-FRET (IMAP-Tb) assay uses a fluorescence labeled substrate peptide in the kinase reaction. Upon phosphorylation by the kinase, phosphopeptide is produced, which will be detected by the binding solution provided in IMAP TR-FRET binding kit. After the completion of the kinase reaction, the reaction will be stopped by adding the binding solution containing terbium tracer. This tracer is immobilized on the surface of the IMAP beads, which also contain metal ions on the beads that bind to the phospho-groups of the products. Thus the phosphorylated product of the reaction can enter into close proximity to the tracer, producing resonance energy transfer. Due to the long lifetime of terbium (Tb) fluorescence the detection can be run in time resolved mode, which virtually eliminates fluorescence interference from assay components or compounds. The TR-FRET signal measurement from this assay, given as an IC50 measurement, is a measure of a test compound's ability to interfere with the phosphorylation of the peptide substrate, that is it inhibits the phosphorylation of the substrate peptide by DYRK1B, and is thus a measure of the test compound's ability to inhibit the activity of DYRK1B. […] Human DYRK1B: from Invitrogen. Part #PR8350B (former PV4649) • 2. Substrate Peptide: in-house synthesized: RRRFRPASPLRGPPK • 3. IMAP TR-FRET IPP Explorer Kit: from Molecular Devices. Part #R8157 • 4. Kinase Assay Buffer (KAB): 10 mM HEPES pH 7.0, 50 mM NaCl, 5 mM MgCl2, 1 mM DTT, 1 mM NaVO4, 200 μg/mL BSA (0.02%) • 5. Assay Plate: Remp polypropylene clear 384-well microplate. Cat#23490-102 • 6. Detection Plate: Costa black 384-well microplate. Cat #3710 Assay Procedure: This assay was performed as follows: • 1. Transfer 1.5 μL of 20× compound solution to each well of an assay plate. • 2. Add to each well 22.5 μL of KAB Buffer. • 3. Add to each well 3 μL of the solution of DYRK1B and ATP. […] Add to each well 3 μL of the substrate peptide. The assay concentration is 1.0 μM • 5. Incubate the assay plates at 37° C. for 60 minutes. • 6. Add 18 μL of Detection Solution (1:800 diluted Progress bead stock, 1:400 diluted Tb stock, 80% Buffer A, and 20% Buffer B) into each well of detection plates. • 7. Transfer 6 μL of assay solution from the assay plate to the detection plate. • 8. Shake detection plates for 30 minutes. • 9. Read plates in Envision with wavelength set at excitation 340 nm for Tb, emission 490 nm, and […] 520 nm. • 10. Calculation: TR-FRET Signal=(Reading at […]/Reading at 490 nM)×2000000
(In general: Time-resolved FRET reads energy transfer from a long-lived donor to a nearby acceptor.)

T2 sequence (Q9Y463 whole entry): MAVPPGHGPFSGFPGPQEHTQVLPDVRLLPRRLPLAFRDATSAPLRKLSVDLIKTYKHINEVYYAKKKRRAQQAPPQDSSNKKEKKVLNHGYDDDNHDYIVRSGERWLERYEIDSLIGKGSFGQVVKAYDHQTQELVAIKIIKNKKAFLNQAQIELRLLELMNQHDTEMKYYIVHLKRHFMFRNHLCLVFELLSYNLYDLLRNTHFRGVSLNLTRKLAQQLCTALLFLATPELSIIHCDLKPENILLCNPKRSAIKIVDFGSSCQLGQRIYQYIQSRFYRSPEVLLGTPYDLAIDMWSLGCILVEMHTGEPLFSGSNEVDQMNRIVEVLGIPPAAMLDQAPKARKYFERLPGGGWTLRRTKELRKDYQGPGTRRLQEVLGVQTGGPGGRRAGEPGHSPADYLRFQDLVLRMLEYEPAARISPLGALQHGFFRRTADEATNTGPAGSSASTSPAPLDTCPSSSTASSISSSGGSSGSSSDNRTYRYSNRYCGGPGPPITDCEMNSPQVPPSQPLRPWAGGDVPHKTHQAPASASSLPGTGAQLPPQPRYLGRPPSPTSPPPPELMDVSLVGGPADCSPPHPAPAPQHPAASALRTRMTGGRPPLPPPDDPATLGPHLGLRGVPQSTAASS

Regarding `COc1cc2[nH]c(=O)c(C(=O)Nc3cc(C(=O)NCc4ccccc4Cl)ccc3C)cc2cn1` [Example 34, 7-Methoxy-2-oxo-1,2-dihydro-[1,6]naphthyridine-3-carboxylic acid [5-(2-chloro-benzylcarbamoyl)-2-methyl-phenyl]-amide], the inhibition at 10 µM in experiment [1] was 45%; in experiment [2], 28%.

On to `COC(=O)c1ccc(C)c(NC(=O)c2cc3ccc(OC)nc3[nH]c2=O)c1` [Example 89, 3-[(7-Methoxy-2-oxo-1,2-dihydro-[1,8]naphthyridine-3-carbonyl)-amino]-4-methyl-benzoic acid methyl ester], for which the half-inhibitory concentration (IC50) in experiment [1] was determined as 0.125 µM. In experiment [2], this compound had an inhibition at 10 µM of 47%.

For the compound `COc1cc2[nH]c(=O)c(C(=O)Nc3cc(C(=O)NCc4ccc(Cl)cc4)ccc3Cl)cc2cn1` [Example 41, 7-Methoxy-2-oxo-1,2-dihydro-[1,6]naphthyridine-3-carboxylic acid [2-chloro-5-(4-chloro-benzylcarbamoyl)-phenyl]-amide], the IC50 in experiment [1] and in experiment [2] was > 10 µM in each case.

In the case of `COC(=O)c1ccc(C)c(NC(=O)c2cc3ccc(N4CCN(C)CC4)nc3[nH]c2=O)c1` [Example 87, 4-Methyl-3-{[7-(4-methyl-piperazin-1-yl)-2-oxo-1,2-dihydro-[1,8]naphthyridine-3-carbonyl]-amino}-benzoic acid methyl ester], the IC50 in experiment [1] worked out at 0.915 µM; in experiment [2], 1.31 µM.

Regarding `COC(=O)c1ccc(C)c(NC(=O)c2cc3cnc(OC)cc3[nH]c2=O)c1` [Example 28, 3-[(7-Methoxy-2-oxo-1,2-dihydro-[1,6]naphthyridine-3-carbonyl)-amino]-4-methyl-benzoic acid methyl ester], the inhibition at 10 µM in experiment [1] turned out to be 24%. In addition, the half-inhibitory concentration (IC50) in experiment [2] is > 10 µM.

On to `COc1cc2[nH]c(=O)c(C(=O)Nc3cc(C(=O)NCc4ccccc4)ccc3Cl)cc2cn1` [Example 32, 7-Methoxy-2-oxo-1,2-dihydro-[1,6]naphthyridine-3-carboxylic acid (5-benzylcarbamoyl-2-chloro-phenyl)-amide], for which the inhibition at 10 µM is 23% in experiment [1] and 19% in experiment [2].

As for `COc1cc2[nH]c(=O)c(C(=O)Nc3cc(C(=O)NCc4ccccc4Cl)ccc3Cl)cc2cn1` [Example 39, 7-Methoxy-2-oxo-1,2-dihydro-[1,6]naphthyridine-3-carboxylic acid [2-chloro-5-(2-chloro-benzylcarbamoyl)-phenyl]-amide], the IC50 in experiment [1] was found to be 0.63 µM; in experiment [2] it was 7.22 µM.

`COc1ccc2cc(C(=O)Nc3cc(C(=O)NCc4ccccc4)ccc3Cl)c(=O)[nH]c2n1` [Example 94, N-(5-(Benzylcarbamoyl)-2-chlorophenyl)-7-methoxy-2-oxo-1,2-dihydro-1,8-naphthyridine-3-carboxamide]: the half-inhibitory concentration (IC50) in experiment [1] came out at 0.05 µM; in experiment [2], 0.079 µM.

For the compound `COc1cc2[nH]c(=O)c(C(=O)Nc3cc(C(=O)NCc4cccc(Cl)c4)ccc3Cl)cc2cn1` [Example 40, 7-Methoxy-2-oxo-1,2-dihydro-[1,6]naphthyridine-3-carboxylic acid [2-chloro-5-(3-chloro-benzylcarbamoyl)-phenyl]-amide], the half-maximal inhibitory concentration (IC50) in experiment [1] was determined as 0.051 µM.

Consider `COc1cc2[nH]c(=O)c(C(=O)Nc3cc(C(=O)NCc4ccc(Cl)cc4)ccc3C)cc2cn1` [Example 36, 7-Methoxy-2-oxo-1,2-dihydro-[1,6]naphthyridine-3-carboxylic acid [5-(4-chloro-benzylcarbamoyl)-2-methyl-phenyl]-amide], for which the IC50 in experiment [1] and in experiment [2] was > 10 µM in each case.

For the compound `COc1ccc2cc(C(=O)Nc3cc(C(=O)NC(CCN)c4ccccc4)ccc3C)c(=O)[nH]c2n1` (centres unmarked) [Example 100, N-(5-(3-Amino-1-phenylpropylcarbamoyl)-2-methylphenyl)-7-methoxy-2-oxo-1,2-dihydro-1,8-naphthyridine-3-carboxamide], the results for the IC50 in experiment [1] and in experiment [2] were 0.0162 µM and 0.0158 µM, respectively.

For the compound `COc1cc2[nH]c(=O)c(C(=O)Nc3cc(C(=O)NCc4cccc(Cl)c4)ccc3C)cc2cn1` [Example 35, 7-Methoxy-2-oxo-1,2-dihydro-[1,6]naphthyridine-3-carboxylic acid [5-(3-chloro-benzylcarbamoyl)-2-methyl-phenyl]-amide], the inhibition at 10 µM worked out at 45% in experiment [1] and 35% in experiment [2].

In the case of `COC(=O)c1ccc(C)c(NC(=O)c2cc3cnc(N4CCN(C)CC4)cc3[nH]c2=O)c1` [Example 74, 4-Methyl-3-{[7-(4-methyl-piperazin-1-yl)-2-oxo-1,2-dihydro-[1,6]naphthyridine-3-carbonyl]-amino}-benzoic acid methyl ester], the figures for the IC50 in experiment [1] and in experiment [2] were 0.96 µM and 3.55 µM, respectively.

With `COc1cc2[nH]c(=O)c(C(=O)Nc3cc(C(=O)NCc4cccs4)ccc3Cl)cc2cn1` [Example 42, 7-Methoxy-2-oxo-1,2-dihydro-[1,6]naphthyridine-3-carboxylic acid {2-chloro-5-[(thiophen-2-ylmethyl)-carbamoyl]-phenyl}-amide], the inhibition at 10 µM in experiment [1] came to 27%; in experiment [2] it was 41%.

With `COc1ccc2cc(C(=O)Nc3cc(C(=O)NCc4ccccc4)ccc3C)c(=O)[nH]c2n1` [Example 98, N-(5-(Benzylcarbamoyl)-2-methylphenyl)-7-methoxy-2-oxo-1,2-dihydro-1,8-naphthyridine-3-carboxamide], the half-maximal inhibitory concentration (IC50) in experiment [1] is 0.79 µM; in experiment [2], 0.69 µM.
